Common to all, as to type: in vivo
One experiment has as its system Myzus persicae. As to the kind of experiment: Example E: Myzus persicae, leaf dip method (capsicum leaves). The conditions noted are these: foliar, third instar nymphs, 72 h after release, dead and moribund combined, read-out: percent mortality. As for the experimental part: (§1) Test solutions were prepared according to the procedure described herein below (500 PPM):
(§2) • 1. Eppendorf Vortex mixer (ThermoMixer C) and 1.5 mL Eppendorf tubes • 2. Beaker—100 mL • 3. Micro-pipette Reagents: • 1. Surfactant Solution • 2. De-mineralized (DM) Water Procedure: • 1. Weigh 10 mg of the compound of the present invention to be tested in an Eppendorf Tube. • 2. Add 200 mg of the Surfactant Solution into the tube. • 3. Fix the tube in Eppendorf Vortex mixer and start vortexing at 2000 rpm. • 4. Mix on Vortex mixer for 30 min. After 30 min, observe the sample over a microscope at 400× resolution. • 5. Add 1.0 mL DM water into the tube, close the cap, shake the tube thoroughly and transfer the contents, along with the beads, into a beaker. • 6. To rinse the tube, add another 1.0 mL of DM water into the tube, close the cap, shake well and transfer this into the same beaker. • 7. Repeat […] one more time so that the tube is rinsed well and all the compound of the present invention is transferred to the beaker. • 8. Add 16.8 mL of DM water into the beaker and stir well. • 9. Immediately use this sample for biological testing. • 10. Further dilutions can be prepared by taking appropriate quantity of the aliquot of Step 8, immediately after stirring, and diluting as per requirement. The sample solution must be well mixed just before biological testing.
Leaf dip method was used for screening, wherein the required quantity of the compounds were weighed and dissolved in the test solution into the tube and vortex at 2000 rpm with Zirconia beads for 90 min and for proper mixing, then mixed with 0.01% Triton-X solution to get the desired test concentration. Capsicum leaves were dipped in the solution for 10 seconds, shade dried for 20 min and then leaves were kept in glass units with petiole dipped in water. Known numbers of third instar nymphs were released and were kept in the plant growth chamber at a temperature of 25° C. and Relative Humidity of 70%. Observations on dead, moribund and live nymphs were recorded at 72 h after the release. Percent mortality was calculated by combining dead and moribund nymphs. The following compound numbers

A further experiment relates to Spodoptera litura. As to the kind of experiment: Example B: Spodoptera litura, diet incorporation method. The note with it: third instar larvae, 96 h after release, dead and moribund combined, read-out: percent mortality. As for the experimental part: as §1, §2
(§3) Diet incorporation method was used, in which semi-synthetic diet was incorporated into the test solutions when the temperature is approximately 50° C. in the bioassay containers and stirred thoroughly for properly mixing and then was allowed to cool for 30 min. The solidified diet was cut into equal pieces, and then each piece was transferred in one cell in Bio-assay trays. A single third instar starved larva was released into each of these cells of bioassay trays and the tray was covered with the lid. The bio-assay trays were kept under laboratory conditions at a temperature of 25° C. and Relative Humidity of 70%. Observations on dead, moribund and live larvae were recorded at 96 h after the release of larvae. Percent mortality was calculated by combining dead and moribund larvae. The following compound numbers

The next experiment relates to Helicoverpa armigera. As to the kind of experiment: Example A: Helicoverpa armigera, diet incorporation method. The conditions noted are these: third instar larvae, 96 h after release, dead and moribund combined, read-out: percent mortality. How it is done: as §1, §2
as §3, with “which the” for “which”, “solution” for “solutions”

A further experiment relates to Plutella xylostella. Kind of experiment: whole plant or invertebrate. The note with it: in Brassica oleracea, foliar, second instar larvae, 72 h after release, dead and moribund combined, read-out: percent mortality. As for the experimental part:
as §1, §2
Leaf dip method was used for screening, wherein the required quantity of the compounds were weighed and dissolved in the test solution into the tube and vortex at 2000 rpm with Zirconia beads for 90 min for proper mixing, then mixed with 0.01% Triton-X solution to get the desired test concentration. and Cabbage leaves were dipped in the solution for 10 seconds, shade dried for 20 min and then transferred to bioassay trays. Single second instar larvae were released into each cell and the tray was covered with lid. The bio-assay trays were kept under laboratory conditions at a temperature of 25° C. and Relative Humidity of 70%. Observations on dead, moribund and live larvae were recorded at 72 h after the release. Percent mortality was calculated by combining dead and moribund larvae. The following compound numbers

Some results are limits rather than exact numbers.

A word on the mortality: it is the percentage killed. For `Cc1cc(Cl)cc(C(=O)NC2CC2)c1NC(=O)c1cc(OC2C[S+]([O-])C2)nn1-c1ncccc1Cl` (stereo not drawn) [Compound 128, N-(4-chloro-2-(cyclopropylcarbamoyl)-6-methylphenyl)-1-(3-chloropyridin-2-yl)-3-((1-oxidothietan-3-yl)oxy)-1H-pyrazole-5-carboxamide], the mortality at 300 ppm in the experiment with Myzus persicae is > 50%. Consider `Cc1cc2ccnn2c(C(=O)NC2CC2)c1NC(=O)c1cc(OC2CSC2)nn1-c1ncccc1Cl` [Compound 138, 6-(1-(3-chloropyridin-2-yl)-3-(thietan-3-yloxy)-1H-pyrazole-5-carboxamido)-N-cyclopropyl-5-methylpyrazolo[1,5-a]pyridine-7-carboxamide], for which the mortality at 300 ppm with Spodoptera litura is > 70%. Consider `CONC(=O)c1c(NC(=O)c2cc(N3CC(F)(F)C3)nn2-c2ncccc2Cl)c(C)cc2ccnn12` [Compound 85, 6-(1-(3-chloropyridin-2-yl)-3-(3,3-difluoroazetidin-1-yl)-1H-pyrazole-5-carboxamido)-N-methoxy-5-methylpyrazolo[1,5-a]pyridine-7-carboxamide], for which the mortality at 300 ppm in the experiment with Helicoverpa armigera and in the experiment with Plutella xylostella was > 70% throughout. `CNC(=O)c1c(NC(=O)c2cc(N3CC(F)(F)C3)nn2-c2ncccc2Cl)c(C)cc2ccnn12` [Compound 79, 6-(1-(3-chloropyridin-2-yl)-3-(3,3-difluoroazetidin-1-yl)-1H-pyrazole-5-carboxamido)-N,5-dimethylpyrazolo[1,5-a]pyridine-7-carboxamide]: the mortality at 300 ppm with Helicoverpa armigera, in the experiment on Spodoptera litura and in the experiment with Plutella xylostella was > 70% in each case.

In the case of `Cc1cc2ccnn2c(C(=O)NCC2CC2)c1NC(=O)c1cc(N2CC(F)(F)C2)nn1-c1ncccc1Cl` [Compound 78, 6-(1-(3-chloropyridin-2-yl)-3-(3,3-difluoroazetidin-1-yl)-1H-pyrazole-5-carboxamido)-N-(cyclopropylmethyl)-5-methylpyrazolo[1,5-a]pyridine-7-carboxamide], the mortality at 300 ppm in the experiment with Helicoverpa armigera, in the experiment with Spodoptera litura and in the experiment on Plutella xylostella was > 70% in each case. Regarding `CC(C)(C)NC(=O)c1cc(Cl)cc(Br)c1NC(=O)c1cc(OC2CSC2)nn1-c1ncccc1Cl` [Compound 45, N-(2-bromo-6-(tert-butylcarbamoyl)-4-chlorophenyl)-1-(3-chloropyridin-2-yl)-3-(thietan-3-yloxy)-1H-pyrazole-5-carboxamide], the mortality at 300 ppm in the experiment with Myzus persicae was > 50%. As to `Cc1cc2ccnn2c(C(=O)NC(C)C2CC2)c1NC(=O)c1cc(OC2CSC2)nn1-c1ncccc1Cl` (stereo not drawn) [Compound 139, 6-(1-(3-chloropyridin-2-yl)-3-(thietan-3-yloxy)-1H-pyrazole-5-carboxamido)-N-(1-cyclopropylethyl)-5-methylpyrazolo[1,5-a]pyridine-7-carboxamide], the mortality at 300 ppm in the experiment on Helicoverpa armigera and in the experiment on Spodoptera litura was > 70% each time. With `C=CCNC(=O)c1cc(Cl)cc(Br)c1NC(=O)c1cc(OC2CSC2)nn1-c1ncccc1Cl` [Compound 92, N-(2-(allylcarbamoyl)-6-bromo-4-chlorophenyl)-1-(3-chloropyridin-2-yl)-3-(thietan-3-yloxy)-1H-pyrazole-5-carboxamide], the mortality at 300 ppm in the experiment with Myzus persicae is > 50%. Regarding `CCCNC(=O)c1c(NC(=O)c2cc(OC3CSC3)nn2-c2ncccc2Cl)c(C)cc2ccnn12` [Compound 108, 6-(1-(3-chloropyridin-2-yl)-3-(thietan-3-yloxy)-1H-pyrazole-5-carboxamido)-5-methyl-N-propylpyrazolo[1,5-a]pyridine-7-carboxamide], in the experiment on Plutella xylostella, the mortality at 300 ppm was > 70%. In the case of `C=CCNC(=O)c1cc(Cl)cc(C)c1NC(=O)c1cc(OC2CSC2)nn1-c1ncccc1Cl` [Compound 98, N-(2-(allylcarbamoyl)-4-chloro-6-methylphenyl)-1-(3-chloropyridin-2-yl)-3-(thietan-3-yloxy)-1H-pyrazole-5-carboxamide], the mortality at 300 ppm in the experiment with Myzus persicae is > 50%.

For `C=CCNC(=O)c1c(NC(=O)c2cc(N3CC(F)(F)C3)nn2-c2ncccc2Cl)c(C)cc2ccnn12` [Compound 87, N-allyl-6-(1-(3-chloropyridin-2-yl)-3-(3,3-difluoroazetidin-1-yl)-1H-pyrazole-5-carboxamido)-5-methylpyrazolo[1,5-a]pyridine-7-carboxamide], the mortality at 300 ppm with Spodoptera litura was > 70%. For the molecule `CCNC(=O)c1c(NC(=O)c2cc(N3CC(F)(F)C3)nn2-c2ncccc2Cl)c(C)cc2ccnn12` [Compound 84, 6-(1-(3-chloropyridin-2-yl)-3-(3,3-difluoroazetidin-1-yl)-1H-pyrazole-5-carboxamido)-N-ethyl-5-methylpyrazolo[1,5-a]pyridine-7-carboxamide], the mortality at 300 ppm in the experiment on Spodoptera litura is > 70%.

Turning to `COCCNC(=O)c1c(NC(=O)c2cc(OC3CSC3)nn2-c2ncccc2Cl)c(C)cc2ccnn12` [Compound 156, 6-(1-(3-chloropyridin-2-yl)-3-(thietan-3-yloxy)-1H-pyrazole-5-carboxamido)-N-(2-methoxyethyl)-5-methylpyrazolo[1,5-a]pyridine-7-carboxamide], in the experiment with Helicoverpa armigera, the mortality at 300 ppm was > 70%. On to `Cc1cc(Cl)cc(C(=O)NCC2CC2)c1NC(=O)c1cc(OC2C[S+]([O-])C2)nn1-c1ncccc1Cl` (stereo not drawn) [Compound 129, N-(4-chloro-2-((cyclopropylmethyl)carbamoyl)-6-methylphenyl)-1-(3-chloropyridin-2-yl)-3-((1-oxidothietan-3-yl)oxy)-1H-pyrazole-5-carboxamide], for which the mortality at 300 ppm with Myzus persicae is > 50%. Consider `Cc1cc2ccnn2c(C(=O)NCC2CC2)c1NC(=O)c1cc(OC2CSC2)nn1-c1ncccc1Cl` [Compound 80, 6-(1-(3-chloropyridin-2-yl)-3-(thietan-3-yloxy)-1H-pyrazole-5-carboxamido)-N-(cyclopropylmethyl)-5-methylpyrazolo[1,5-a]pyridine-7-carboxamide], for which the mortality at 300 ppm in the experiment with Helicoverpa armigera, in the experiment on Spodoptera litura and in the experiment with Plutella xylostella was > 70% throughout. As to `CCNC(=O)c1c(NC(=O)c2cc(OC3CSC3)nn2-c2ncccc2Cl)c(C)cc2ccnn12` [Compound 137, 6-(1-(3-chloropyridin-2-yl)-3-(thietan-3-yloxy)-1H-pyrazole-5-carboxamido)-N-ethyl-5-methylpyrazolo[1,5-a]pyridine-7-carboxamide], the mortality at 300 ppm in the experiment with Plutella xylostella is > 70%.

In the case of `Cc1cc(Cl)cc(C(=O)NC(C)C)c1NC(=O)c1cc(OC2C[S+]([O-])C2)nn1-c1ncccc1Cl` (stereo not drawn) [Compound 117, N-(4-chloro-2-(isopropylcarbamoyl)-6-methylphenyl)-1-(3-chloropyridin-2-yl)-3-((1-oxidothietan-3-yl)oxy)-1H-pyrazole-5-carboxamide], the mortality at 300 ppm in the experiment on Myzus persicae was > 50%. Take `CONC(=O)c1cc(Cl)cc(Br)c1NC(=O)c1cc(OC2CSC2)nn1-c1ncccc1Cl` [Compound 91, N-(2-bromo-4-chloro-6-(methoxycarbamoyl)phenyl)-1-(3-chloropyridin-2-yl)-3-(thietan-3-yloxy)-1H-pyrazole-5-carboxamide]: the mortality at 300 ppm in the experiment on Myzus persicae was > 50%. Take `O=C(NCC(F)(F)F)c1cc(Cl)cc(Cl)c1NC(=O)c1cc(OC2CSC2)nn1-c1ncccc1Cl` [Compound 132, 1-(3-chloropyridin-2-yl)-N-(2,4-dichloro-6-((2,2,2-trifluoroethyl)carbamoyl)phenyl)-3-(thietan-3-yloxy)-1H-pyrazole-5-carboxamide]: the mortality at 300 ppm with Myzus persicae was > 50%.

The values above are taken from patent publication US12221436B2, “Anthranilamides, their use as insecticide and processes for preparing the same” (PI INDUSTRIES LTD., priority 2018, dated 2025).
